Measurements taken from PMC7703563 (Proceedings of the National Academy of Sciences of the …, 2020).
Values belong to the molecule of their own block, whether it stands above or below them.

How the values were obtained:
[1] = target: T1, MANEA-Δ97 (human endo-α-1,2-mannosidase catalytic domain, GH99) (Homo sapiens, UniProt Q5SRI9); experiment: isothermal titration calorimetry; assay type: binding
T1 sequence (Q5SRI9 98-462): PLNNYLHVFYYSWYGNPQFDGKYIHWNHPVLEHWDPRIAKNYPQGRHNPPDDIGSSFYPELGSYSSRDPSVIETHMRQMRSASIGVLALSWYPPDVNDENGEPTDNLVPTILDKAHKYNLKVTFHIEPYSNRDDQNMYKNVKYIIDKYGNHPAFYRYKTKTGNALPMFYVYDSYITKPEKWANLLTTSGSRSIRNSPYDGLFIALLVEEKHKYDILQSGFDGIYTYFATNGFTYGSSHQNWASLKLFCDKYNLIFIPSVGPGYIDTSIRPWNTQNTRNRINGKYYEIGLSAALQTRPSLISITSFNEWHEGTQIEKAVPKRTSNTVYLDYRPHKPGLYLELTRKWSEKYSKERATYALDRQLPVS

[2] = target: T1, MANEA-Δ97 (human endo-α-1,2-mannosidase catalytic domain, GH99); experiment: X-ray crystal structure; assay type: binding; details: ternary complex with GlcIFG; +1/+2 subsites
[3] = substrate: CO[C@H]1O[C@H](CO)[C@@H](O)[C@H](O)[C@@H]1O[C@H]1O[C@H](CO)[C@@H](O)[C@H](O)[C@@H]1O[C@H]1O[C@H](CO)[C@@H](O)[C@H](O[C@H]2O[C@H](CO)[C@@H](O)[C@H](O)[C@H]2O)[C@@H]1O; experiment: purified protein; details: α-mannosidase-coupled release of mannose

- Kd [1]: 1020 nM
Molecule: OC[C@H]1NC[C@@H](O)[C@@H](O[C@H]2O[C@H](CO)[C@@H](O)[C@H](O)[C@H]2O)[C@@H]1O [GlcDMJ]

Molecule: OC[C@H]1O[C@H](O[C@@H]2C(O)O[C@H](CO)[C@@H](O)[C@@H]2O)[C@@H](O)[C@@H](O)[C@@H]1O (stereo partly drawn) [α-1,2-mannobiose]
- X-ray crystal structure [2]: a ternary complex with GlcIFG and α-1,2-mannobiose

B1: MANEA-Δ97 (human endo-α-1,2-mannosidase catalytic domain, GH99) (Homo sapiens) (protein)
chain: T1 sequence (Q5SRI9 98-462)
- Km [3]: 426 ± 33 µM
- kcat [3]: 27.7 ± 1.0 min⁻¹
